Source: US6803203B1, “DNA-PK assay” (Brookhaven Science Associates, priority 1993, dated 2004)
“Also recorded” adds a separate entry of the source. No end group written: not given here.

Columns and labels:
DNA-PK [1] = target: T1, DNA-PK (Homo sapiens, UniProt P78527); experiment: Phosphorylation of synthetic peptides in crude cell extracts (HeLa, T98G); assay type: biochemical; conditions: for PO4 incorporated + DNA: + calf thymus DNA 10 μg/ml; for PO4 incorporated + DNA / PO4 incorporated − DNA: peptide 200 μM, 10 min 30° C.; for PO4 incorporated − DNA: without DNA
T1 construct: DNA-PK was purified from HeLa cells; endogenous in cells; host or cells: HeLa S3 cells; the endogenous enzyme was purified in house by chromatography
Protocol: (§1) To examine cells for DNA-PK content, extracts from HeLa, T98G human glioblastoma, and mouse L 929 cells were prepared by freeze-thaw lysis of cells harvested from five nearly confluent 9-cm-diameter plates as described in Example 1 and by Lees-Miller, et al. J. Biol. Chem., 264:2431-2437 (1989). T98G (ATCC CRL 1690) is a human glioblastoma cell line; L-929 (ATCC CCL 1) was derived from connective tissue of the NCTC 2071 mouse. Based on earlier work with natural protein substrates, it was expected that extracts of HeLa and T98G cells would contain a significant amount of DNA-PK activity while the extracts of mouse L 929 would contain little, if any, DNA-PK activity. Lysates in low-salt buffer were centrifuged at 10,000×g, to give a supernatant fraction (designated S10) and pellets (designated P10). The pellets were washed by resuspension in a high salt buffer (0.5 M KCl, 25 mM N-2-hydroxyethylpiperazine-N′-2-ethanesulfonic acid (HEPES; pH 7.5), 10 mM MgCl2, 1 mM dithiothreitol) and were sonicated. The sonicated suspension was centrifuged at 10,000×g for 10 min to give a second supernatant fraction (designated P10S), which was diluted with buffer lacking KCl to give a volume equal to that of the original supernatant (S10). Protein concentrations, determined using the Bio-Rad dye-binding assay, were as follows: HeLa S10, 3 mg/ml; HeLa P10S, 1 mg/ml; T98G S10, 3.5 mg/ml;,T98G P10S, 1 mg/ml; L-929 S10, 1 mg/ml; and L-929 P10S, 0.3 mg/ml. These extracts were assayed for the ability to phosphorylate (SEQ ID NOS: 11 and 20) with and without added calf thymus DNA.

DNA-PK [2] = experiment: Phosphorylation of synthetic peptides in crude cell extracts (L 929); assay type: biochemical, mouse; conditions: peptide 200 μM, 10 min 30° C.
Protocol: as §1

DNA-PK [3] = target: T1, DNA-PK; experiment: Phosphorylation of synthetic peptides by purified DNA-PK (phosphocellulose paper binding method); assay type: biochemical
Protocol: Phenylmethylsulfonyl fluoride was added to the S10 (10,000×g) supernatant as a powder to 0.5 mM. DNA-PK activity was found in the 100,000×g (ribosomal) pellet. DNA-PK preparations typically were made from 200 ml of S10 supernatant that had been derived from approximately 10^10 cells. All steps were performed at 4° C. unless indicated otherwise.
Phosphorylation reactions were performed in a 20- or 40-μl final volume as previously described by Chen, et al., J. Virol., 10:5131-5140 (1991) and Lees-Miller, et al., Mol. Cell. […] In particular, in addition to synthetic peptide substrates or protein substrates, the assays contained 50 mM HEPES (pH 7.5), 100 mM KCl, 10 mM MgCl2, 2 mM EGTA, 0.1 mM EDTA and 0.125 mM ATP containing [^32P]ATP at 0.2 mCi/ml. […] Assays were started by adding 1 μl of kinase sample. Incubations were at 30° C. for 7 min.
For determinations of kinetic constants, the ATP concentration was 0.5 mM. When present, hsp90 was included at 0.5 mg/ml. Assay mixtures were preincubated at 30° C. for 2 min before addition of 0.1 to 0.5 μg (protein) of the DNA-PK preparation.
In particular, kinase reactions were stopped by adding an equal volume of 30% acetic acid, and portions of the acidified reaction were spotted on 2- by 2-cm squares of P-81 paper (Whatman, Inc., Clifton, N.J.). […] The P-81 squares were then transferred to scintillation vials containing 3.5 ml of water, and bound radioactivity was determined from the Cerenkov radiation. Enzyme activity was calculated from triplicate determinations, using the specific activity of the ATP and the protein concentration, which was determined by the Bio-Rad dye-binding assay (Bio-Rad (Bradford) Protein Assay Kit 1, Cat. No. 500-001, Bio-Rad Laboratories, Hercules, Calif.), using bovine serum albumin as the standard. […] The kinetic constants, Km and Vmax for each peptide sequence were calculated from plots of 1/[S] versus 1/V, the values reported are averages of at least two independent determinations.

DNA-PK [4] = target: T1, DNA-PK; experiment: Poorer substrate peptides added to (SEQ ID NO: 8) phosphorylation assays; assay type: biochemical; conditions: peptide up to 250 μM; (SEQ ID NO: 8) at 100 μM
DNA-PK [5] = experiment: DNA-PK activity in extracts of rat cells; assay type: biochemical; conditions: Rat REF, peptide 0.2 mM; for Specific Activity + DNA: + calf thymus DNA 10 μg/ml; for Specific Activity − DNA: no added DNA
Protocol: (§2) Extracts of additional primate and rodent cells were tested for the presence of DNA-PK activity in accordance with the method of the present invention. The DNA-PK activity was determined using the methods described in Examples 1, 4 and 5 for seven human cell lines, two African green monkey kidney lines, and six rodent cell lines.
(§3) Extracts were prepared essentially as described in Example 10. Cells were lysed by freezing and thawing in hypotonic buffer; soluble (S10) “cytoplasmic” and insoluble in (P10) “nuclear” fractions were made by centrifuging lysates at 10,000×g for 10 min. The insoluble fraction was extracted with buffer containing 0.5 M KCl, which releases any DNA-PK that is bound to DNA. After centrifugation of the salt-washed pellet fraction, which removed the remaining insoluble material, the salt extract (P10S) was diluted and assayed as previously described.
(§4) Protein concentrations, determined using the Bio-Rad dye binding assay, were between 0.3 and 6 mg/ml. Extracts were incubated at 30° C. for 10 min with each peptide at 0.2 mM in the absence of added DNA (−DNA) or with 10 μg/ml calf thymus DNA (+DNA). After incubation the reaction mixtures were acidified with an equal volume of 30% acetic acid and spotted on to Whatman P-81 phosphocellulose paper (Whatman, Inc., Clifton, N.J.). The filters then were washed extensively in 15% acetic acid before the adsorbed radioactivity was quantitated as described in Example 5.
(§5) The amount of phosphate incorporated was calculated from the specific activity of the ATP. The rate of phosphate incorporation into the Ser-Gln-Glu peptide (Table 1) (SEQ ID NO: 11) in the presence of calf thymus DNA was approximately linear throughout the 10 minute reaction incubation period. Parallel assays were performed without added peptide, and these background values were subtracted to produce the activities that are shown in Table 3. Background values varied but, in all cases, were less than 0.2 nmol/min/mg (a few percent of the activity present in human cells). The specific activities were calculated from the total activity in the two fractions divided by the total protein in the two fractions. The percent of total DNA-PK activity in the S10 and P10S fractions was determined with peptide (SEQ ID NO: 11) in the presence of added calf thymus DNA. Extracts without substantial DNA-PK activity were examined for their ability to inhibit purified DNA-PK. Inhibitory activity was not detected.

DNA-PK [6] = experiment: DNA-PK activity in extracts of monkey cell lines; assay type: biochemical, African green monkey; conditions: peptide 0.2 mM; for Specific Activity + DNA: + calf thymus DNA 10 μg/ml; for Specific Activity − DNA: no added DNA
Protocol: as §2, §3, §4, §5

DNA-PK [7] = experiment: DNA-PK activity in extracts of mouse cell lines; assay type: biochemical; conditions: peptide 0.2 mM; for Specific Activity + DNA: + calf thymus DNA 10 μg/ml; for Specific Activity − DNA: no added DNA
Protocol: as §2, §3, §4, §5

EPPLSEQAFADLWKK [SEQ ID NO: 20]
PO4 incorporated + DNA (DNA-PK [1]; HeLa, P10S): 0.0 nmol/min/ml of extract | PO4 incorporated − DNA (DNA-PK [1]; HeLa, P10S): 0.0 nmol/min/ml of extract | PO4 incorporated + DNA (DNA-PK [1]; HeLa, S10): 0.3 nmol/min/ml of extract | PO4 incorporated − DNA (DNA-PK [1]; HeLa, S10): 0.0 nmol/min/ml of extract | PO4 incorporated + DNA (DNA-PK [1]; T98G, P10S): 0.0 nmol/min/ml of extract | PO4 incorporated − DNA (DNA-PK [1]; T98G, P10S): 0.0 nmol/min/ml of extract | PO4 incorporated + DNA (DNA-PK [1]; T98G, S10): 0.04 nmol/min/ml of extract | PO4 incorporated − DNA (DNA-PK [1]; T98G, S10): 0.02 nmol/min/ml of extract | phosphorylation by crude cell extracts (in words) (DNA-PK [1]; all extracts of Table 2 (HeLa, T98G, L 929)): poorly phosphorylated, if at all | PO4 incorporated + DNA (DNA-PK [2]; P10S, + calf thymus DNA 10 μg/ml): 0.0 nmol/min/ml of extract | PO4 incorporated − DNA (DNA-PK [2]; P10S, without DNA): 0.0 nmol/min/ml of extract | PO4 incorporated + DNA (DNA-PK [2]; S10, + calf thymus DNA 10 μg/ml): 0.0 nmol/min/ml of extract | PO4 incorporated − DNA (DNA-PK [2]; S10, without DNA): 0.0 nmol/min/ml of extract | substrate activity for DNA-PK (in words) (DNA-PK [3]): negligible substrate activity; also recorded: not phosphorylated by DNA-PK | PO4 incorp. (DNA-PK [3]; each peptide at 200 μM, calf thymus DNA 10 μg/ml, 30° C.): 0 pmol/min/μg of DNA-PK | inhibition of phosphorylation of (SEQ ID NO: 8) (DNA-PK [4]): None of these peptides significantly inhibited the phosphorylation | Specific Activity + DNA (DNA-PK [5]; P10S): 0.0 nmol PO4/min/mg protein | Specific Activity − DNA (DNA-PK [5]; P10S): 0.03 nmol PO4/min/mg protein | Specific Activity + DNA (DNA-PK [5]; S10): 0.0 nmol PO4/min/mg protein | Specific Activity − DNA (DNA-PK [5]; S10): 0.02 nmol PO4/min/mg protein | Specific Activity + DNA (DNA-PK [6]; Monkey COS-1, P10S): 0.24 nmol PO4/min/mg protein | Specific Activity − DNA (DNA-PK [6]; Monkey COS-1, P10S): 0.0 nmol PO4/min/mg protein | Specific Activity + DNA (DNA-PK [6]; Monkey COS-1, S10): 0.02 nmol PO4/min/mg protein | Specific Activity − DNA (DNA-PK [6]; Monkey COS-1, S10): 0.0 nmol PO4/min/mg protein | Specific Activity + DNA (DNA-PK [6]; Monkey CV-1, P10S): 0.08 nmol PO4/min/mg protein | Specific Activity − DNA (DNA-PK [6]; Monkey CV-1, P10S): 0.08 nmol PO4/min/mg protein | Specific Activity + DNA (DNA-PK [6]; Monkey CV-1, S10): 0.05 nmol PO4/min/mg protein | Specific Activity − DNA (DNA-PK [6]; Monkey CV-1, S10): 0.0 nmol PO4/min/mg protein | Specific Activity + DNA (DNA-PK [7]; Mouse L-929, P10S): 0.0 nmol PO4/min/mg protein | Specific Activity − DNA (DNA-PK [7]; Mouse L-929, P10S): 0.0 nmol PO4/min/mg protein | Specific Activity + DNA (DNA-PK [7]; Mouse L-929, S10): 0.0 nmol PO4/min/mg protein | Specific Activity − DNA (DNA-PK [7]; Mouse L-929, S10): 0.0 nmol PO4/min/mg protein | Specific Activity + DNA (DNA-PK [7]; Mouse SV-Balb/c, P10S): 0.04 nmol PO4/min/mg protein | Specific Activity − DNA (DNA-PK [7]; Mouse SV-Balb/c, P10S): 0.0 nmol PO4/min/mg protein | Specific Activity + DNA (DNA-PK [7]; Mouse SV-Balb/c, S10): 0.06 nmol PO4/min/mg protein | Specific Activity − DNA (DNA-PK [7]; Mouse SV-Balb/c, S10): 0.0 nmol PO4/min/mg protein
